Values of other authors, collected in patent publication US9597409B2, “Methods of treating cancer” (Abraxis BioScience, LLC, priority 2010, dated 2017).

Test system: patients with locally advanced or metastatic NSCLC
Conditions: single agents commonly used to treat NSCLC

SMILES: CCC1=C[C@@H]2CN(C1)Cc1c([nH]c3ccccc13)[C@@](C(=O)OC)(c1cc3c(cc1OC)N(C)[C@H]1[C@@](O)(C(=O)OC)[C@H](OC(C)=O)[C@]4(CC)C=CCN5CC[C@]31[C@@H]54)C2 [vinorelbine]
- response rate (RR): 29.4%
